Legend:
[1] = tested on: IL-1β release upon NLRP3 activation in human whole blood; test: Whole blood (WB) assay (IL-1β release, LPS priming + ATP stimulation, HTRF); type: cell-based; settings: heparin, diluted 9:5 with media, LPS 1 μg/ml 3 h, compound 30 min, ATP 5 mM 1 h, IL-1β by HTRF
Protocol: The compounds of the present disclosure were tested for their inhibitory activity against IL-1β release upon NLRP3 activation in human whole blood.
Whole blood was drawn from single healthy donors and treated with sodium heparin anticoagulant. Blood was diluted with cell culture media at a 9:5 ratio, seeded in a 96-well plate and incubated for 3 h with lipopolysaccharide (LPS, 1 μg/ml final concentration diluted 1000× from a 1 mg/ml stock solution). The compounds of the present disclosure were added (a single compound concentration per well) and the blood was incubated for 30 min. Next, the blood was stimulated with ATP (5 mM final concentration diluted 20× from a 100 mM stock solution) for 1 h and the cell culture media from the wells were collected for further analysis.
The release of IL-1β into the media was determined by quantitative detection of IL-1β in the media using HTRF®, CisBio cat. No. 62HIL1BPEH. Briefly, cell culture supernatant were diluted as appropriate to bring IL-1β levels within the HTRF® detection range ([…]) and subsequently dispensed into the assay plate containing antibodies labelled with the HTRF® donor and acceptor. A microplate spectrophotometer (BMG) was used to detect signals at 655 nm and 620 nm.

[2] = tested on: IL-1β release upon NLRP3 activation in peripheral blood mononuclear cells (PBMC); test: PBMC IC50 determination assay (IL-1β release, LPS priming + ATP stimulation, HTRF); type: cell-based; settings: PBMC from buffy coats; LPS 1 μg/ml 3 h, compound 30 min, ATP 5 mM 1 h; IL-1β by HTRF
Protocol: The compounds of the present disclosure were tested for their inhibitory activity against IL-1β release upon NLRP3 activation in peripheral blood mononuclear cells (PBMC).
PBMC were isolated from buffy coats by density gradient centrifugation on Histopaque-1077 (Sigma, cat no. 10771). Isolated cells were seeded into the wells (280,000 cells/well) of a 96-well plate and incubated for 3 h with lipopolysaccharide (LPS, 1 μg/ml diluted 1000× from a 1 mg/ml stock solution). The compounds of the present disclosure were added (a single compound per well) and the cells were incubated for 30 min. Next, the cells were stimulated with ATP (5 mM final concentration diluted 20× from a 100 mM stock solution) for 1 h and the cell culture media from the wells were collected for further analysis.
The release of IL-1β into the media was determined by quantitative detection of IL-1β in the media using HTRF®, CisBio cat. No. 62HIL1BPEH. Briefly, cell culture supernatant were dispensed directly into the assay plate containing antibodies labelled with the HTRF® donor and acceptor. A microplate spectrophotometer (BMG) was used to detect signals at 655 nm and 620 nm. The detection range of IL-1β HTRF® was […].

| IC50 [1] [µM] | Compound | IC50 [2] [µM] |
| --- | --- | --- |
| 1 to 3 | CC(C)c1cc(NC(=O)NS(=O)(=O)N(c2cnn(C)c2)C2CCCN(C)C2)c(C2CC2)s1 (centres unmarked) [Compound 38, 3-[2-Cyclopropyl-5-(propan-2-yl)thiophen-3-yl]-1-[(1-methyl-1H-pyrazol-4-yl)(1-methylpiperidin-3-yl)sulfamoyl]urea] | < 0.1 |
| 10 to 20 | Cc1cc(C)c(NC(=O)NS(=O)(=O)N(c2cnn(C)c2)C2CCCN(C)C2)s1 (centres unmarked) [Compound 10, 3-(3,5-Dimethylthiophen-2-yl)-1-[(1-methyl-1H-pyrazol-4-yl)(1-methyl-piperidin-3-yl)sulfamoyl]urea] | 1 to 5 |
| < 1 | Cc1cc(NC(=O)NS(=O)(=O)N(c2cnn(C)c2)[C@@H]2CCN(C)C2)c(C(C)C)s1 [Compound 130, 1-[(1-Methyl-1H-pyrazol-4-yl)[(3R)-1-methylpyrrolidin-3-yl]sulfamoyl]-3-[5-methyl-2-(propan-2-yl)thiophen-3-yl]urea] | < 0.1 |
| 1 to 3 | CC(C)c1sc(C2CC2)cc1NC(=O)NS(=O)(=O)N(c1cnn(C)c1)C1CCCN(C)C1 (centres unmarked) [Compound 37, 3-[5-Cyclopropyl-2-(propan-2-yl)thiophen-3-yl]-1-[(1-methyl-1H-pyrazol-4-yl)(1-methylpiperidin-3-yl)sulfamoyl]urea] | < 0.1 |
| < 1 | CC(C)c1cc(NC(=O)NS(=O)(=O)N(c2cnn(C)c2)[C@@H]2CCCN(C)C2)c(C(C)C)s1 [Compound 54, 3-[2,5-Bis(propan-2-yl)thiophen-3-yl]-1-[(1-methyl-1H-pyrazol-4-yl)[(3R)-1-methylpiperidin-3-yl]sulfamoyl]urea] | < 0.1 |
| < 1 | Cc1sc2c(c1NC(=O)NS(=O)(=O)N(c1cnn(C)c1)[C@@H]1CCN(C)C1)CCC2 [Compound 126, 1-[(1-Methyl-1H-pyrazol-4-yl)[(3R)-1-methylpyrrolidin-3-yl]sulfamoyl]-3-{2-methyl-4H,5H,6H-cyclopenta[b]thiophen-3-yl}urea] | < 0.1 |
| > 20 | CC(C)c1cc(NC(=O)NS(=O)(=O)N(c2cnn(C)c2)C2CCOCC2)c(C(C)C)s1 [Compound 6, 3-[2,5-Bis(propan-2-yl)thiophen-3-yl]-1-[(1-methyl-1H-pyrazol-4-yl)(oxan-4-yl)sulfamoyl]urea] | 0.5 to 1 |
| < 1 | Cc1sc2c(c1NC(=O)NS(=O)(=O)N(c1cnn(C)c1)[C@H]1CCCN(C)C1)CCC2 [Compound 116, 1-[(1-Methyl-1H-pyrazol-4-yl)[(3S)-1-methylpiperidin-3-yl]sulfamoyl]-3-{2-methyl-4H,5H,6H-cyclopenta[b]thiophen-3-yl}urea] | < 0.1 |
| < 1 | CCc1cc(NC(=O)NS(=O)(=O)N(c2cnn(C)c2)C2CCCN(C)C2)c(C(C)C)o1 (centres unmarked) [Compound 79, 3-[5-Ethyl-2-(propan-2-yl)furan-3-yl]-1-[(1-methyl-1H-pyrazol-4-yl)(1-methyl-piperidin-3-yl)sulfamoyl]urea] | < 0.1 |
| 3 to 10 | Cc1csc(C)c1NC(=O)NS(=O)(=O)N(c1cnn(C)c1)C1CCCN(C)C1 (centres unmarked) [Compound 9, 3-(2,4-Dimethylthiophen-3-yl)-1-[(1-methyl-1H-pyrazol-4-yl)(1-methyl-piperidin-3-yl)sulfamoyl]urea] | 1 to 5 |
| < 1 | CCc1cc(NC(=O)NS(=O)(=O)N(c2cnn(C)c2)[C@H]2CCCN(C)C2)c(C(C)C)s1 [Compound 88, 3-[5-Ethyl-2-(propan-2-yl)thiophen-3-yl]-1-[(1-methyl-1H-pyrazol-4-yl)[(3S)-1-methylpiperidin-3-yl]sulfamoyl]urea] | < 0.1 |
| 1 to 3 | CCc1sc(C(C)C)cc1NC(=O)NS(=O)(=O)N(c1cnn(C)c1)[C@H]1CCCN(C)C1 [Compound 89, 3-[2-Ethyl-5-(propan-2-yl)thiophen-3-yl]-1-[(1-methyl-1H-pyrazol-4-yl)[(3S)-1-methylpiperidin-3-yl]sulfamoyl]urea] | < 0.1 |
| 10 to 20 | CN1CCCC(N(c2cnn(C)c2)S(=O)(=O)NC(=O)Nc2c(C(C)(C)C)sc3c2CCC3)C1 (centres unmarked) [Compound 122, 3-{2-Tert-butyl-4H,5H,6H-cyclopenta[b]thiophen-3-yl}-1-[(1-methyl-1H-pyrazol-4-yl)(1-methylpiperidin-3-yl)sulfamoyl]urea] | 0.5 to 1 |
| 1 to 3 | Cc1cc(NC(=O)NS(=O)(=O)N(c2cnn(C)c2)C2CCCN(C)C2)c(C)s1 (centres unmarked) [Compound 8, 3-(2,5-Dimethylthiophen-3-yl)-1-[(1-methyl-1H-pyrazol-4-yl)(1-methyl-piperidin-3-yl)sulfamoyl]urea] | 1 to 5 |
| < 1 | Cc1c(C(C)C)sc(C(C)C)c1NC(=O)NS(=O)(=O)N(c1cnn(C)c1)[C@@H]1CCCN(C)C1 [Compound 67, 1-[(1-Methyl-1H-pyrazol-4-yl)[(3R)-1-methylpiperidin-3-yl]sulfamoyl]-3-[4-methyl-2,5-bis(propan-2-yl)thiophen-3-yl]urea] | 0.1 to 0.5 |
| 1 to 3 | CC(C)c1sc(Cl)cc1NC(=O)NS(=O)(=O)N(c1cnn(C)c1)C1CCN(C)CC1 [Compound 123, 3-[5-Chloro-2-(propan-2-yl)thiophen-3-yl]-1-[(1-methyl-1H-pyrazol-4-yl)(1-methylpiperidin-4-yl)sulfamoyl]urea] | < 0.1 |
| 1 to 3 | Cc1sc2ccccc2c1NC(=O)NS(=O)(=O)N(c1cnn(C)c1)C1CCCN(C)C1 (centres unmarked) [Compound 12, 3-(2-Methyl-1-benzothiophen-3-yl)-1-[(1-methyl-1H-pyrazol-4-yl)(1-methyl-piperidin-3-yl)sulfamoyl]urea] | 0.5 to 1 |
| 3 to 10 | CC(C)c1cc(NC(=O)NS(=O)(=O)N(CCN(C)C)c2cnn(C)c2)c(C(C)C)o1 [Compound 75, 3-[2,5-Bis(propan-2-yl)furan-3-yl]-1-{[2-(dimethylamino)ethyl](1-methyl-1H-pyrazol-4-yl)sulfamoyl}urea] | 0.1 to 0.5 |
| < 1 | CC(C)c1cc(NC(=O)NS(=O)(=O)N(c2cnn(C)c2)C2CCCN(C)C2)c(C(C)C)o1 (centres unmarked) [Compound 73, 3-[2,5-Bis(propan-2-yl)furan-3-yl]-1-[(1-methyl-1H-pyrazol-4-yl)(1-methylpiperidin-3-yl)sulfamoyl]urea] | < 0.1 |
| 1 to 3 | CCc1oc(C(C)C)cc1NC(=O)NS(=O)(=O)N(c1cnn(C)c1)C1CCCN(C)C1 (centres unmarked) [Compound 78, 3-[2-Ethyl-5-(propan-2-yl)furan-3-yl]-1-[(1-methyl-1H-pyrazol-4-yl)(1-methyl-piperidin-3-yl)sulfamoyl]urea] | 0.5 to 1 |
| < 1 | CC(C)c1sc(Cl)cc1NC(=O)NS(=O)(=O)N(c1cnn(C)c1)[C@@H]1CCN(C)C1 [Compound 129, 3-[5-Chloro-2-(propan-2-yl)thiophen-3-yl]-1-[(1-methyl-1H-pyrazol-4-yl)-[(3R)-1-methylpyrrolidin-3-yl]sulfamoyl]urea] | < 0.1 |
| 1 to 3 | CC(C)c1cc(NC(=O)NS(=O)(=O)N(c2cnn(C)c2)C2CCCN(C)C2)c(Cl)s1 (centres unmarked) [Compound 50, 3-[2-Chloro-5-(propan-2-yl)thiophen-3-yl]-1-[(1-methyl-1H-pyrazol-4-yl)(1-methylpiperidin-3-yl)sulfamoyl]urea] | 0.5 to 1 |
| 1 to 3 | CC(C)c1cc(NC(=O)NS(=O)(=O)N(CCN(C)C)c2cnn(C(C)C)c2)c(C(C)C)o1 [Compound 83, 1-[2,5-Bis(propan-2-yl)furan-3-yl]-3-{[2-(dimethylamino)ethyl][1-(propan-2-yl)-1H-pyrazol-4-yl]sulfamoyl}urea] | 0.1 to 0.5 |
| 3 to 10 | CC(C)c1cc(NC(=O)NS(=O)(=O)N(c2cnn(C)c2)C2CN(C)CC(F)(F)C2)c(C(C)C)s1 (centres unmarked) [Compound 93, 3-[2,5-Bis(propan-2-yl)thiophen-3-yl]-1-[(5,5-difluoro-1-methylpiperidin-3-yl)(1-methyl-1H-pyrazol-4-yl)sulfamoyl]urea] | 0.1 to 0.5 |
| < 1 | CCc1cc(NC(=O)NS(=O)(=O)N(c2cnn(C)c2)C2CCCN(C)C2)c(CC)s1 (centres unmarked) [Compound 13, 3-(2,5-Diethylthiophen-3-yl)-1-[(1-methyl-1H-pyrazol-4-yl)(1-methylpiperidin-3-yl)sulfamoyl]urea] | < 0.1 |

— patent US12624023B2, “Sulfonylurea derivatives and uses thereof” (NodThera Limited, priority 2019, dated 2026)
